Square brackets hold non-standard residues; d marks the D form. Ends that are not written are not given here. pGlu = O=C1CC[C@@H](C(=O)O)N1
Columns and labels:
[1] = system: mouse ADAMTS7; test: TMT10 TAILS N-terminomics, SMC1 experiment (Ad-mADAMTS7 WT vs EQ vs Luc, technical replicates, trypsin digest); format: cell-based; settings: TAILS neo-N-terminal peptide abundance; log fold change, Ad-mADAMTS7 WT over EQ
In short: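 Full-length mouse ADAMTS7 (WT or E373Q mutant, C-terminal 3xFLAG) or luciferase was transduced via adenovirus, 50 MOI, into HCA-SMC (SMC1, SMC2) or HUVEC. SMC1: pooled media, technical triplicates 400 ug; SMC2: process triplicates 300 ug; HUVEC: process triplicates 200 ug, bFGF2 10 ng/ml.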

[2] = system: mouse ADAMTS7; test: TMT10 TAILS N-terminomics, SMC2 experiment (process replicates, trypsin/AspN digest); format: cell-based; settings: SMC2_TAILS HC; log fold change, mWT over mEQ
Description: ADAMTS7 Expression, Cell Culture and Preparation of the Secreted Proteins—Full-length mouse Adamts7 1-1857 (Uniprot Q68SA9, WT or E373Q catalytic mutant) with a carboxyl terminal 3xFLAG tag was used to generate custom adenoviruses as previously described. Adeno-CMV-Luciferase (Ad-Luc) from Vector Biolabs was used as a negative control. Human Coronary Artery Smooth Muscle Cells (HCA-SMC) were obtained from Lonza and expanded in Lonza SmGM-2 media in 15 cm tissue culture plates. Twenty-four hours before media collection, near confluent plates were transduced with 50 MOI adenovirus and switched to Lonza Basal SM media with volumes of 20 ml per 15 cm plate. Expression of the Flag tagged ADAMTS7 was confirmed from the media using western blot and detected using the anti-Flag M2-HRP antibody (Sigma, A8592). Collected media was processed by adding protease inhibitors (1 mM EDTA and 1 mM PMSF) and clarified by 500 g×5 min spin at 4 C to pellet cell debris. Cell media supernatants were then passed through a 0.22 um filter and kept chilled. Processed media was then concentrated 50-100× using 3 kDa Centricon Plus-70 filter unit, spun at 3,500 g×60 min at 4 C. Approximately 10% of the processed, concentrated media was set aside for total secretome proteolytic analysis. The remaining 90% of the processed, concentrated media was buffer exchanged into 50 mM HEPES pH 8.0, 150 mM NaCl (2×50 ml) using the 3 kDa Centricon Plus-70 filter unit and concentrated to >2 mg/ml to serve as input for the TAILS experiment. Secretome and TAILS input samples were stored at −80° C.
For the first experiment, referred to as SMC1, 120 ml of media from 6×15 cm dishes was pooled from each condition (Luc, WT, EQ) and processed to produce three separate inputs for the TAILS experiment. Luc, WT and EQ inputs from the SMC1 experiment were each divided into triplicate 400 ug samples to generate technical replicate TAILS data. For the second experiment, referred to as SMC2, media was processed separately in triplicate for each condition (Luc1, Luc2, Luc3, WT1, WT2, WT3, EQ1, EQ2, EQ3) using 60 ml of media from 3×15 cm dishes for each process replicate. Inputs from the SMC2 experiment used process replicates of 300 ug each to generate TAILS data. The third experiment used input from cultured Human umbilical vein endothelial cells (HUVEC) from Lifeline Cell Technology grown in VascuLife Media and transduced in Lifeline Basal EC (+bFGF2 10 ng/ml). The HUVEC experiment used the same strategy as the SMC2 experiment, with 40 ml of media from 2×15 cm dishes for each process replicate and used 200 ug each to generate TAILS data. Inputs for process replicate experiments were restricted to the lowest concentration from the 9 parallel samples for SMC2 or HUVEC.
TMT10 isotopic labeling and negative selection of non-labeled peptides-Sample preparation was performed based on the TAILS protocol from the Overall lab with some modifications. From a single experiment, nine parallel protein samples in 50 mM HEPES pH 8.0, 150 mM NaCl were separately denatured with guanidinium chloride (Sigma, G4505) to reach a final concentration of 2.5M guanidinium chloride and 250 mM HEPES and incubated at 65° C. for 15 min. Reduction was achieved through addition of tris(2-carboxylethyl) phosphine (TCEP) at a final concentration of […] and incubated at 65° C. for 45 min. Alkylation reaction was performed with addition of iodoacetamide (IAA, Sigma, A3221) to a final concentration of 10 mM IAA for 15 min at room temperature in the dark. Following denaturation, reduction and alkylation steps, ten percent of each of the nine parallel protein samples was removed and combined to serve as a pooled reference. Isobaric tags were added to free amine groups using the TMT10plex Isobaric Mass Tagging Kit (ThermoFisher, 90113) with TMT channels randomly assigned to the nine samples and TMT 131 assigned to the pooled reference. […]

| Substance | logFC.mWT.over.mEQ [1] | logFC.mWT.over.mEQ [2] |
| --- | --- | --- |
| ACTB_21 (FAGDDAPR; listed as Homo sapiens) | 1.17 | – |
| ACTB_105 (LTEAPLNPKANR; listed as Homo sapiens) | 2.00 | – |
| ADAM9_69 (VIQAEGKEHIIHLER; listed as Homo sapiens) | 1.55 | – |
| AEBP1_37 (FLEGFLSELEPEPR; listed as Homo sapiens) | 3.41 | 3.48 |
| APLP2_579 (ISETPVDVR; listed as Homo sapiens) | 2.00 | – |
| CCDC80_66 (LEEPNLQPLQR; listed as Homo sapiens) | 3.70 | 2.21 |
| ECM1_134 (FGDQSHPEPESWNAAQHCQQDR; listed as Homo sapiens) | 2.74 | – |
| EFEMP1_124 (AVAGPEMQTGR; listed as Homo sapiens) | 4.43 | 3.27 |
| EFEMP1_125 (VAGPEMQTGR; listed as Homo sapiens) | 2.25 | 2.42 |
| EFHD2_67 (QGIGEPQSPSR; listed as Homo sapiens) | 0.90 | – |
| EHBP1L1_298 (TAPTPAPR; listed as Homo sapiens) | 1.23 | – |
| FBLN2_259 (ALGPPAPVQAKAR; listed as Homo sapiens) | 1.29 | 1.88 |
| FBLN2_260 (LGPPAPVQAKAR; listed as Homo sapiens) | 4.21 | 2.42 |
| FBN1_29 (LEAGNVKETR; listed as Homo sapiens) | 4.49 | 3.57 |
| FBN1_53 (LKGPNVCGSR; listed as Homo sapiens) | 4.93 | 4.89 |
| FLNA_612 (SVEGPSQAKIECDDKGDGSCDVR; listed as Homo sapiens) | 1.69 | – |
| FLNA_695 (FTVDAKHGGKAPLR; listed as Homo sapiens) | 5.04 | – |
| FLNA_1285 (LTQTGGPHVKAR; listed as Homo sapiens) | 5.06 | 5.72 |
| FN1_36 (MVQPQSPVAVSQSKPGCYDNGKHYQINQQWER; listed as Homo sapiens) | 3.34 | 3.69 |
| FN1_40 (QSPVAVSQSKPGCYDNGKHYQINQQWER; listed as Homo sapiens) | 4.27 | 2.66 |
| FN1_45 (VSQSKPGCYDNGKHYQINQQWER; listed as Homo sapiens) | 3.20 | – |

| Substance | logFC.mWT.over.mEQ [1] | logFC.mWT.over.mEQ [2] |
| --- | --- | --- |
| FN1_47 ([code q]SKPGCYD[code n]GKHYQINQQWER; not fully specified; listed as Homo sapiens) | 2.89 | – |
| FN1_281 (SGSGPFTDVR; listed as Homo sapiens) | 1.88 | – |
| FN1_282 (GSGPFTDVR; listed as Homo sapiens) | 3.89 | – |
| FN1_886 (NQESTPVVIQQETTGTPR; listed as Homo sapiens) | 1.21 | – |
| FN1_1143 (LTPGVEYVYTIQVLR; listed as Homo sapiens) | 0.86 | 2.80 |
| FN1_1731 (FTDVDVDSIKIAWESPQGQVSR; listed as Homo sapiens) | 2.70 | – |
| FN1_2143 (FEEHGFR; listed as Homo sapiens) | 1.24 | – |
| FN1_2217 (FQDTSEYIISCHPVGTDEEPLQFR; listed as Homo sapiens) | 2.27 | – |
| GALNT2_31 (LAGGAGGGAGR; listed as Homo sapiens) | 1.19 | – |
| GSN_35 (SQAGAPQGR; listed as Homo sapiens) | 4.37 | – |
| HEG1_49 (GAGLELQLER; listed as Homo sapiens) | 1.20 | – |
| HLA−C_52 (VDDTQFVR; listed as Homo sapiens) | 0.78 | – |
| HSPG2_1937 (SSAGQQVAR; listed as Homo sapiens) | 0.94 | – |
| HSPG2_2688 (VADSGEYVCR; listed as Homo sapiens) | 3.02 | – |
| HSPG2_3250 (SPLPWQHR; listed as Homo sapiens) | 1.01 | – |
| HSPG2_3542 (IAHVELADAGQYR; listed as Homo sapiens) | 0.67 | – |
| HSPG2_3647 ([pGlu]GKVKAFAHLQVPER; listed as Homo sapiens) | 1.22 | – |
| HSPG2_3672 (SFLPLPTIKDAYR; listed as Homo sapiens) | 1.03 | – |
| HSPG2_3813 (SSGFIGCVR; listed as Homo sapiens) | 1.09 | – |
| HSPG2_4004 (SAEPLALGR; listed as Homo sapiens) | 1.25 | – |
| HSPG2_4021 (LNKDGSLR; listed as Homo sapiens) | 0.73 | – |

| Substance | logFC.mWT.over.mEQ [1] | logFC.mWT.over.mEQ [2] |
| --- | --- | --- |
| HSPG2_4075 (GCVGEVSVNGKR; listed as Homo sapiens) | 0.75 | – |
| HSPG2_4133 (DGFKGDLCEHEENPCQLR; listed as Homo sapiens) | 0.76 | – |
| HTRA1_33 (LAAGCPDR; listed as Homo sapiens) | 2.78 | – |
| IFI30_43 (YKTGNLYLR; listed as Homo sapiens) | 3.19 | – |
| IGFBP3_200 (FSSESKR; listed as Homo sapiens) | 2.41 | – |
| LASP1_123 (HEEFEKSR; listed as Homo sapiens) | 1.40 | – |
| LGALS1_53 (HGDANTIVCNSKDGGAWGTEQR; listed as Homo sapiens) | 3.89 | – |
| LGALS3BP_447 (FQAPSDYR; listed as Homo sapiens) | 4.13 | – |
| LOXL2_318 (AYKPEQPLVR; listed as Homo sapiens) | 0.78 | – |
| LOX_80 (ANASAQQPR; listed as Homo sapiens) | 2.18 | – |
| LOX_81 (NASAQQPR; listed as Homo sapiens) | 1.69 | – |
| LTBP1_494 (SVQIHQVSR; listed as Homo sapiens) | 2.63 | – |
| LTBP1_546 (HVYPVAAKTQLGR; listed as Homo sapiens) | 4.67 | – |
| LTBP2_485 (SVQIHQVAQVR; listed as Homo sapiens) | 2.23 | – |
| LTBP2_533 (SGEPPRPLPPAAPR; listed as Homo sapiens) | 1.06 | – |
| LTBP2_677 (SLGPGTCTLPLAQR; listed as Homo sapiens) | 0.85 | – |
| LTBP2_760 (SSGALPGPAER; listed as Homo sapiens) | 1.24 | – |
| LTBP2_1023 (GKCTNLEGSFR; listed as Homo sapiens) | 0.71 | – |
| LTBP2_1371 (SGQKGHAPCSSVLGR; listed as Homo sapiens) | 0.93 | – |
| LTBP2_1560 (TTYTECCCQDGEAWSQQCALCPPR; listed as Homo sapiens) | 0.71 | – |
| LTBP2_1584 (SSEVYAQLCNVAR; listed as Homo sapiens) | 1.08 | – |

From US20240368668A1, “SUBSTRATES AND BIOMARKERS OF ADAMTS7” (The Broad Institute, Inc., priority 2021, published 2024)
